Measured values: ChEMBL document CHEMBL1201862, “PubChem BioAssay data set” (2004)
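Interpolation was linear, between the two tested concentrations surrounding the appropriate level; five concentrations were tested over 48 hours in 96-well plates. Here, GI50 denotes the concentration required for 50% inhibition of growth.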 The source made the active and inactive calls. Rule as the data show it: active = GI50 up to about 1.1 µM and inactive = higher.

Experiments:
Experiment in all cases: NCI-60 cell line screen, 48 h
MDA-MB-435 = tested on: MDA-MB-435
CAKI-1 = tested on: CAKI-1
SNB-75 = tested on: SNB-75
SF-539 = tested on: SF-539
MDA-N = tested on: MDA-N
TK-10 = tested on: TK-10
NCI-H522 = tested on: NCI-H522
SNB-19 = tested on: SNB-19
UACC-257 = tested on: UACC-257
SK-MEL-28 = tested on: SK-MEL-28
SW-620 = tested on: SW-620
PC-3 = tested on: PC-3
UO-31 = tested on: UO-31
NCI-H23 = tested on: NCI-H23
SF-268 = tested on: SF-268
HOP-92 = tested on: HOP-92
CCRF-CEM = tested on: CCRF-CEM
ACHN = tested on: ACHN
U-251 = tested on: U-251
MDA-MB-231 = tested on: MDA-MB-231
Malme-3M = tested on: Malme-3M
OVCAR-3 = tested on: OVCAR-3
OVCAR-5 = tested on: OVCAR-5
IGROV-1 = tested on: IGROV-1
A549 = tested on: A549
KM12 = tested on: KM12
UACC-62 = tested on: UACC-62
RPMI-8226 = tested on: RPMI-8226
NCI-H226 = tested on: NCI-H226
DU-145 = tested on: DU-145
MOLT-4 = tested on: MOLT-4
SK-OV-3 = tested on: SK-OV-3
OVCAR-4 = tested on: OVCAR-4
COLO 205 = tested on: COLO 205
HL-60 = tested on: HL-60
HT-29 = tested on: HT-29
NCI/ADR-RES = tested on: NCI/ADR-RES
Hs-578T = tested on: Hs-578T
SN12C = tested on: SN12C
OVCAR-8 = tested on: OVCAR-8
BT-549 = tested on: BT-549
EKVX = tested on: EKVX
MCF7 = tested on: MCF7
NCI-H460 = tested on: NCI-H460
HOP-62 = tested on: HOP-62
SF-295 = tested on: SF-295
SK-MEL-2 = tested on: SK-MEL-2
HCC 2998 = tested on: HCC 2998
HCT-15 = tested on: HCT-15
SR = tested on: SR
786-0 = tested on: 786-0
HCT-116 = tested on: HCT-116
M14 = tested on: M14
LOX IMVI = tested on: LOX IMVI
K562 = tested on: K562
RXF 393 = tested on: RXF 393
SK-MEL-5 = tested on: SK-MEL-5
A498 = tested on: A498
T47D = tested on: T47D

For `Nc1ccc2ccc(N3CCNCC3)nc2n1`, the GI50 (MDA-MB-435) was 49.7 µM (inactive), the GI50 (CAKI-1) was > 100 µM (inactive) and the GI50 (SNB-75) was > 100 µM (inactive). For the same compound, the GI50 (SF-539) was 71.3 µM (inactive), the GI50 (MDA-N) was 75 µM (inactive) and the GI50 (TK-10) was > 100 µM (inactive). For the same compound, the GI50 (NCI-H522) was 45.3 µM (inactive), the GI50 (SNB-19) was 42.2 µM (inactive) and the GI50 (UACC-257) was > 100 µM (inactive). For the same compound, the GI50 (SK-MEL-28) was > 100 µM (inactive), the GI50 (SW-620) was 47.6 µM (inactive) and the GI50 (PC-3) was 44.7 µM (inactive). The GI50 (UO-31) was 50.4 µM (inactive), the GI50 (NCI-H23) was 56.8 µM (inactive) and the GI50 (SF-268) was 44.7 µM (inactive). For the same compound, the GI50 (HOP-92) was 46 µM (inactive), the GI50 (CCRF-CEM) was 31.6 µM (inactive) and the GI50 (ACHN) was 74.8 µM (inactive). The GI50 (U-251) was 80.2 µM (inactive), the GI50 (MDA-MB-231) was 37.3 µM (inactive) and the GI50 (Malme-3M) was 38.9 µM (inactive). For the same compound, the GI50 (OVCAR-3) was 17.9 µM (inactive), the GI50 (OVCAR-5) was 32.4 µM (inactive) and the GI50 (IGROV-1) was 19.5 µM (inactive). For the same compound, the GI50 (A549) was > 100 µM (inactive), the GI50 (KM12) was 48.2 µM (inactive) and the GI50 (UACC-62) was 59.2 µM (inactive). For the same compound, the GI50 (RPMI-8226) was 84.3 µM (inactive), the GI50 (NCI-H226) was 21.4 µM (inactive) and the GI50 (DU-145) was > 100 µM (inactive). For the same compound, the GI50 (MOLT-4) was 32.4 µM (inactive), the GI50 (SK-OV-3) was 83.9 µM (inactive) and the GI50 (OVCAR-4) was 57.7 µM (inactive). For the same compound, the GI50 (COLO 205) was 49.1 µM (inactive), the GI50 (HL-60) was 34 µM (inactive) and the GI50 (HT-29) was 33.7 µM (inactive). For the same compound, the GI50 (NCI/ADR-RES) was > 100 µM (inactive), the GI50 (Hs-578T) was 47.5 µM (inactive) and the GI50 (SN12C) was 51.2 µM (inactive). For the same compound, the GI50 (OVCAR-8) was > 100 µM (inactive), the GI50 (BT-549) was 65.8 µM (inactive) and the GI50 (EKVX) was 74.1 µM (inactive). The GI50 (MCF7) was 70 µM (inactive), the GI50 (NCI-H460) was 44 µM (inactive) and the GI50 (HOP-62) was 23.9 µM (inactive). The GI50 (SF-295) was 39.9 µM (inactive), the GI50 (SK-MEL-2) was 35.1 µM (inactive) and the GI50 (HCC 2998) was 44.2 µM (inactive). The GI50 (HCT-15) was 76.6 µM, the GI50 (SR) was 33.4 µM (inactive) and the GI50 (786-0) was 61.7 µM (inactive). For the same compound, the GI50 (HCT-116) was 43.2 µM (inactive), the GI50 (M14) was 55.1 µM (inactive) and the GI50 (LOX IMVI) was > 100 µM (inactive). For the same compound, the GI50 (K562) was 50.8 µM (inactive).

In the case of `CCc1n[nH]c(=O)n1/N=C/c1c(O)ccc2ccccc12`, the GI50 (MDA-MB-435) is reported as > 100 µM (inactive), the GI50 (SNB-75) is reported as > 100 µM (inactive) and the GI50 (SF-539) is reported as > 100 µM (inactive). The GI50 (MDA-N) was > 100 µM (inactive), the GI50 (TK-10) was > 100 µM (inactive) and the GI50 (NCI-H522) was > 100 µM (inactive). For the same compound, the GI50 (SNB-19) was > 100 µM (inactive), the GI50 (UACC-257) was > 100 µM (inactive) and the GI50 (SK-MEL-28) was > 100 µM (inactive). The GI50 (SW-620) was > 100 µM (inactive), the GI50 (PC-3) was > 100 µM (inactive) and the GI50 (UO-31) was > 100 µM (inactive). The GI50 (NCI-H23) was > 100 µM (inactive), the GI50 (SF-268) was > 100 µM (inactive) and the GI50 (HOP-92) was > 100 µM (inactive). For the same compound, the GI50 (CCRF-CEM) was > 100 µM (inactive), the GI50 (ACHN) was > 100 µM (inactive) and the GI50 (U-251) was > 100 µM (inactive). For the same compound, the GI50 (MDA-MB-231) was > 100 µM (inactive), the GI50 (OVCAR-3) was > 100 µM (inactive) and the GI50 (OVCAR-5) was > 100 µM (inactive). The GI50 (RXF 393) was > 100 µM (inactive), the GI50 (IGROV-1) was > 100 µM (inactive) and the GI50 (A549) was > 100 µM (inactive). For the same compound, the GI50 (KM12) was > 100 µM (inactive), the GI50 (UACC-62) was > 100 µM (inactive) and the GI50 (RPMI-8226) was > 100 µM (inactive). For the same compound, the GI50 (DU-145) was > 100 µM (inactive), the GI50 (MOLT-4) was > 100 µM (inactive) and the GI50 (SK-OV-3) was > 100 µM (inactive). The GI50 (OVCAR-4) was > 100 µM (inactive), the GI50 (COLO 205) was > 100 µM (inactive) and the GI50 (NCI/ADR-RES) was > 100 µM (inactive). For the same compound, the GI50 (Hs-578T) was 2.06 µM (inactive), the GI50 (SN12C) was > 100 µM (inactive) and the GI50 (OVCAR-8) was > 100 µM (inactive). The GI50 (BT-549) was > 100 µM (inactive), the GI50 (EKVX) was > 100 µM (inactive) and the GI50 (MCF7) was > 100 µM (inactive). The GI50 (HOP-62) was > 100 µM (inactive), the GI50 (SK-MEL-5) was > 100 µM (inactive) and the GI50 (SF-295) was > 100 µM (inactive). For the same compound, the GI50 (SK-MEL-2) was > 100 µM (inactive), the GI50 (HCC 2998) was > 100 µM (inactive) and the GI50 (HCT-15) was greater than 100 µM. For the same compound, the GI50 (SR) was > 100 µM (inactive), the GI50 (786-0) was > 100 µM (inactive) and the GI50 (HCT-116) was > 100 µM (inactive). The GI50 (M14) was > 100 µM (inactive), the GI50 (LOX IMVI) was > 100 µM (inactive) and the GI50 (K562) was > 100 µM (inactive).

In the case of `Cc1ccc(-c2sc(-c3ccc(C)cc3)c3c2C2CCC3C2)cc1`, the GI50 (MDA-MB-435) is reported as > 50 µM (inactive), the GI50 (CAKI-1) is reported as > 50 µM (inactive) and the GI50 (SF-539) is reported as > 50 µM (inactive). The GI50 (MDA-N) was > 50 µM (inactive), the GI50 (A498) was > 50 µM (inactive) and the GI50 (TK-10) was > 50 µM (inactive). The GI50 (NCI-H522) was > 50 µM (inactive), the GI50 (SNB-19) was > 50 µM (inactive) and the GI50 (UACC-257) was > 50 µM (inactive). For the same compound, the GI50 (SK-MEL-28) was > 50 µM (inactive), the GI50 (SW-620) was > 50 µM (inactive) and the GI50 (PC-3) was > 50 µM (inactive). For the same compound, the GI50 (UO-31) was > 50 µM (inactive), the GI50 (NCI-H23) was > 50 µM (inactive) and the GI50 (SF-268) was > 50 µM (inactive). The GI50 (HOP-92) was > 50 µM (inactive), the GI50 (CCRF-CEM) was > 50 µM (inactive) and the GI50 (ACHN) was > 50 µM (inactive). The GI50 (U-251) was > 50 µM (inactive), the GI50 (MDA-MB-231) was > 50 µM (inactive) and the GI50 (Malme-3M) was > 50 µM (inactive). For the same compound, the GI50 (OVCAR-3) was > 50 µM (inactive), the GI50 (OVCAR-5) was > 50 µM (inactive) and the GI50 (RXF 393) was > 50 µM (inactive). The GI50 (IGROV-1) was > 50 µM (inactive), the GI50 (A549) was > 50 µM (inactive) and the GI50 (KM12) was > 50 µM (inactive). For the same compound, the GI50 (UACC-62) was > 50 µM (inactive), the GI50 (RPMI-8226) was > 50 µM (inactive) and the GI50 (NCI-H226) was > 50 µM (inactive). For the same compound, the GI50 (DU-145) was > 50 µM (inactive), the GI50 (MOLT-4) was > 50 µM (inactive) and the GI50 (SK-OV-3) was > 50 µM (inactive). The GI50 (OVCAR-4) was > 50 µM (inactive), the GI50 (COLO 205) was > 50 µM (inactive) and the GI50 (HL-60) was > 50 µM (inactive). For the same compound, the GI50 (HT-29) was > 50 µM (inactive), the GI50 (NCI/ADR-RES) was > 50 µM (inactive) and the GI50 (Hs-578T) was > 50 µM (inactive). The GI50 (SN12C) was > 50 µM (inactive), the GI50 (OVCAR-8) was > 50 µM (inactive) and the GI50 (BT-549) was > 50 µM (inactive). The GI50 (EKVX) was > 50 µM (inactive), the GI50 (NCI-H460) was > 50 µM (inactive) and the GI50 (HOP-62) was > 50 µM (inactive). The GI50 (SK-MEL-5) was > 50 µM (inactive), the GI50 (SF-295) was > 50 µM (inactive) and the GI50 (SK-MEL-2) was > 50 µM (inactive). For the same compound, the GI50 (HCT-15) was greater than 50 µM, the GI50 (SR) was > 50 µM (inactive) and the GI50 (786-0) was > 50 µM (inactive). The GI50 (HCT-116) was > 50 µM (inactive), the GI50 (M14) was > 50 µM (inactive) and the GI50 (LOX IMVI) was > 50 µM (inactive). For the same compound, the GI50 (K562) was > 50 µM (inactive) and the GI50 (T47D) was > 50 µM (inactive).
